Molecular target: T1, trypanothione reductase (TR; LiTR) (Leishmania infantum, UniProt A4HSF7)
T1 construct: gene TRYR; Full-length LiTR with carboxy-terminal six-histidine tag (LiTR.6His), expressed in E. coli
Assay: DTNB-coupled trypanothione reductase assay with purified recombinant enzyme; Lineweaver-Burk and Dixon plot analysis (IC50 […] also reported)
Assay type: biochemical

T1 sequence (A4HSF7 1-491): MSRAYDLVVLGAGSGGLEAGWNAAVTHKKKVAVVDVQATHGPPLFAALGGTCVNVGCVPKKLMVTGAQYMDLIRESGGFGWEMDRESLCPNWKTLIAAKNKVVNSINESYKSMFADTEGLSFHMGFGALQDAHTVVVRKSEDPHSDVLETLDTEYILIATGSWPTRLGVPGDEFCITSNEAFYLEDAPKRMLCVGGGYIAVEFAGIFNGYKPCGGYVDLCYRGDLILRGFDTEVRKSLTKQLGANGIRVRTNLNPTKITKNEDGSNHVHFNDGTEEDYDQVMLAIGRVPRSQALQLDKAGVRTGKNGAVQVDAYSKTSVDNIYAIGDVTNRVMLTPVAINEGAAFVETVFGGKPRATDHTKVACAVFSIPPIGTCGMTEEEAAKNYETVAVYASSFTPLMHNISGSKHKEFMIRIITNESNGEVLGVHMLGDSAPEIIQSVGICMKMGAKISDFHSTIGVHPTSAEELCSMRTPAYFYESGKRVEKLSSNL

O=C(O[C@@H]1Cc2c(O)cc(O)cc2O[C@@H]1c1cc(O)c(O)c(O)c1)c1cc(O)c(O)c(O)c1 [(-)-Epigallocatechin 3-O-gallate]
Ki: 294 ± 66.3 µM

Reference: article PMC8027256, “Epigallocathechin-O-3-Gallate Inhibits Trypanothione Reductase of Leishmania infantum, Causing Alterations in Redox Balance and Leading to Parasite Death” (Frontiers in Cellular and Infection Microbiology, 2021)
